Experimental findings from patent US20110105389A1 (priority 2009, published 2011) are described below.

For one data set, the system named is male ob/ob mice. The data set can be described thus: Subchronic oral administration in male ob/ob mice (7, 15 and 28 day protocols), Method B15. It is filed as in vivo, mouse. The text has this:
B15. Effects of Subchronic Administration of Compounds of the Invention in Male ob/ob Mice
The objective of this study is to determine the subchronic effects of test compounds on body weight change, food and water consumption, as well as glucose homeostasis and insulin levels in male ob/ob mice upon oral administration for up to 7 days. The male ob/ob mouse was selected as a type 2 diabetes (T2DM) and genetically defined obesity model which is sensitive to the effect of different insulin sensitizers in acute as well as in chronic settings.
A similar study in this model was conducted to determine the acute and subchronic effects of test compounds on body weight change, food and water consumption, glucose homeostasis, insulin and glucagon levels, as well as lipid profile and brain penetration upon oral administration to the male ob/ob mice for up to 28 days.
Mice were individually housed in rodent cages with soft wood bedding on the bottom and equipped with water bottles. All cages were clearly labeled with a cage card indicating study number, group, animal number and dose level. Each animal was uniquely identified by an animal number marked on their tail with indelible ink. The animal number was designated the day the animals arrive at the animal facility. The animal room environment was controlled (targeted ranges: temperature 22±2° C.; relative humidity 50±10%; light/dark cycle: 12 hours light, 12 hours dark, lights on from 06:00 AM to 06:00 PM). A regular rodent diet (Charles River 5075 rodent chow, Purina Mills, Canada) was provided to the animals ad libitum. Municipal tap water was provided to the animals ad libitum via water bottles. Fresh tap water was provided after water bottle weighing. An acclimation period of approximately 7 days for all groups was allowed between the receipt of animals and the start of treatment to accustom the […] to the laboratory environment. On experimental Day −7, animals were stratified according to body weight and glycemia into an appropriate number of groups of 5 or 10 animals and two groups of 5 animals.
Test compounds were administered, as a solution, orally, at the doses indicated. The dose volume will be 5 mL/kg/day. Groups were dosed once daily around 4:00 p.m. As positive controls, rosiglitazone (Avandia®), an approved anti-diabetic drug of the thiazolidinediones family (ppar gamma agonist) which has been specifically reported to normalize glycemia in the ob/ob mouse model (Liu et al., J. Med. Chem.; 46: 2093-2103, 2003) was used. The CB1 receptor antagonist rimonabant (Accomplia®) was reported to reduce body weight and food intake in different models of Type 2 diabetes and obesity and was also employed (Rasmussen and Huskinson Behavioral Pharmacol. 2008, 19, 735-742,; Bobo, G.; et al. Hepathology 2007, 46, 122-129; Di Marzo; et al., Nature 2001, 410, 822-825).
For, the study animals, the data collected from study Day −7 to Day 8 were reported. Body weights were recorded for all animals on Day −7 prior to initiation of dosing, at the time of group assignment and daily throughout the study period (Day 1-8). Food and water intake was Measured 4 hrs post-dosing, 2 hrs after the beginning of the dark cycle (around 8:00 p.m.) on Day 1 and 7 (Subset A) as well as on Day 2 and 8 (Subset B) and then daily in 24 h intervals from Day 3 through Day 8. On Day 1 (Subset A) and Day 2 (Subset B), blood was sampled from 3 animals/group from Groups 2 through 4 into EDTA coated tubes (K2-EDTA microtainer tubes, Becton Dickinson) from a tail vein (˜100 μL) 4 hrs post-dose for PK analysis. Blood was centrifuged at 4000 rpm for 10 min. at 4° C., and the resulting plasma transferred into non-coated tubes and stored at −80° C. until analysis. The same procedures were repeated on Day 7 (Subset A) and Day 8 (Subset B) 24 hrs post-dose. […]

Another data set concerns Caco-2 cells. The data set is described as follows: Caco-2 permeability, Method B7. It is filed as in vitro ADME, human. The note with it: for A to B Mean Papp / B to A Mean Papp: Caco-2, 10 μM, without P-gp inhibitor; for Efflux ratio Papp B2A/Papp A2B: Caco-2, without P-gp inhibitor. An excerpt:
B7. Determination of Caco-2 Permeability
The Caco-2 cell line, derived from a human colorectal carcinoma, has become an established in vitro model for the prediction of drug absorption across the human intestine. (Sun, D.; Yu, L. X.; Hussain, M. A.; Wall, D. A.; Smith, R. L.; Amidon, G. L. Curr. Opin. Drug Discov. Devel. 2004, 7, 75-85; Bergstrom, C. A. Basic Clin. Pharmacol. Toxicol. 2005, 96, 156-61; Balimane, P. V.; Han, Y. H.; Chong, S. AAPS J. 2006, 8, E1-13; Shah, P.; Jogani, V.; Bagchi, T.; Misra, A. Biotechnol. Prog. 2006, 22, 186-198.) When cultured on semi-permeable membranes, Caco-2 cells differentiate into a highly functionalized epithelial barrier with remarkable morphological and biochemical similarity to the small intestinal columnar epithelium. Fully differentiated cell monolayers can be used to assess the membrane transport properties of novel compounds.
Assays to determine the permeability of compounds of the invention utilizing Caco-2 cells are commercially available, for example NoAb BioDiscoveries (Mississaugua, ON, Canada) and Absorption Systems (Exton, Pa., USA).
Permeability across the Caco-2 cell layer was determined by growing the cells on a membrane placed between two (donor and acceptor) chambers. Drug candidates are typically added to the apical (A) side of the cell layer and their appearance in the basolateral (B) side is measured over incubation time. Permeability in this direction represents intestinal absorption. Permeability may also be determined from the basolateral to the apical side of the Caco-2 cell. […]
Permeability (10 μM) for compounds of the invention in the apical to basolateral and basolateral to apical direction were tested in duplicate. Samples will be collected from the donor and acceptor chambers at the beginning (0 min) and following 60 min of incubation at 37° C. and stored frozen at −70° C. until bioanalysis. Samples for each test compound generated from the Caco-2 permeability assay were further analyzed by LC-MS-MS. The permeability of [^3H]-mannitol and [^3H]-propranolol were determined in parallel as controls.
The permeability coefficient (Papp) of each compound and radiolabeled standard was determined using the following equation: […]
where dQ/dT represents the permeability rate, Ci denotes the initial concentration in the donor compartment, and A represents the surface area of the filter. Ci is determined from the mean concentration of duplicate samples taken prior to addition to the donor compartment. Permeability rates were calculated by plotting the cumulative amount of compound measured in the acceptor compartment over time and determining the slope of the line by linear regression analysis. The duplicate and mean apical to basolateral and basolateral to apical Papp's were reported for each compound and standard. […]
A general note: Caco-2 monolayers are a common model of the intestinal barrier.

Another data set concerns the target CYP2D6 (Homo sapiens, UniProt P10635). The data set can be described thus: Cytochrome P450 inhibition, Method B6. The note with it: read-out: IC50 CYP 2D6; Table 4a; dextromethorphan used as substrate.
The mark [1] stands for this setting: vs vehicle control mice, FIG. 13.

CYP2D6, sequence (P10635 whole entry): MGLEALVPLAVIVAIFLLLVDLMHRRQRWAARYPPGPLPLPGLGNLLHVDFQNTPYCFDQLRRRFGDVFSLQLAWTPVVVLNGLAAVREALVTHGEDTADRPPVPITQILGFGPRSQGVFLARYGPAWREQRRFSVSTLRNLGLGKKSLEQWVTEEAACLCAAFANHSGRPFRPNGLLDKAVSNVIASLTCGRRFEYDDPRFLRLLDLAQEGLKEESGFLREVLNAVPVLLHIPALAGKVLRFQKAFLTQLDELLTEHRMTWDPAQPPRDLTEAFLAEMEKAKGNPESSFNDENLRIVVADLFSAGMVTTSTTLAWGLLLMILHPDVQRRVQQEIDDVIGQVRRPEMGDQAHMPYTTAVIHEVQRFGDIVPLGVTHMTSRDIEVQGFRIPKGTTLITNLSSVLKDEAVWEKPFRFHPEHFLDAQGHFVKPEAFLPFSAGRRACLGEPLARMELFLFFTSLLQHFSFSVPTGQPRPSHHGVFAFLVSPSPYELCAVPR

With `CC(C)[C@@H]1NCCOc2ccccc2C#CCNC(=O)[C@@H](Cc2ccccc2)NC(=O)[C@H](C(C)O)N(C)C1=O` (stereo partly drawn) [Compound 1712], the “acute cumulative food intake” value in the data set with male ob/ob mice (over a 2 hr period, fasted animals, vs vehicle control, FIG. 11) is reported as “significantly reduced”.

Broadly, the IC50 is the concentration at which inhibition is half-maximal. Take `CC(C)[C@@H]1NCC2CCc3cccc(c3O2)CCCNC(=O)[C@@H](Cc2ccccc2)NC(=O)[C@H](C(C)O)N(C)C1=O` (stereo partly drawn) [Compound 1777]: in the data set with Caco-2 cells, the A to B Mean Papp is 0.274 ×10⁻⁶ cm/s, the B to A Mean Papp was 53.5 ×10⁻⁶ cm/s and the “Efflux ratio Papp B2A/Papp A2B” value was found to be 195. Moreover, the IC50 on CYP2D6 is 11.8 µM.

As to `CC(C)[C@@H]1NCCOc2ccccc2C2CCC(C2)NC(=O)[C@@H](Cc2c[nH]c3ccccc23)NC(=O)[C@H](C(C)O)N(C)C1=O` (stereo partly drawn) [Compound 1843], in the data set on Caco-2 cells, the A to B Mean Papp was determined as 0.142 ×10⁻⁶ cm/s, the B to A Mean Papp amounted to 13.4 ×10⁻⁶ cm/s and the “Efflux ratio Papp B2A/Papp A2B” value is reported as 95. Besides, the 50% inhibitory concentration (IC50) at CYP2D6 stood at 7.7 µM.

`CC(C)[C@@H]1NCCOc2ccccc2C2CCC(C2)NC(=O)[C@@H](Cc2ccccc2)NC(=O)[C@H](C(C)O)N(C)C1=O` (stereo partly drawn) [Compound 1848]: the “blood glucose levels during oral glucose tolerance test” value in the data set with male ob/ob mice (75 mg/kg, vs vehicle control) is “significant decrease”. Further, the “reduction in cumulative food intake” value in the data set with male ob/ob mice (po, 75 mg/kg, 336 h) is reported as 11.9%. The insulin sensitivity result with male ob/ob mice (treated ob/ob mice) is “improvement”. Also, in the data set on male ob/ob mice (setting [1]), the “free fatty acids (FFAs)” value is “significantly reduced”, the glucagon result is given as “significantly reduced”, the insulin entry was “significantly reduced” and the non-fasting glucose result is recorded as “significantly reduced”. In the data set on male ob/ob mice (setting [1]), the “total cholesterol level significantly reduced” value is listed as “not” and the “triglycerides level significantly reduced” value is on record as “not”.
